Laboratory results reported in patent publication US20230167105A1, “BCL-2 PROTEIN INHIBITORS” (Recurium IP Holdings, LLC, priority 2020, published 2023).

system: MOLT-4 cells; assay: MOLT-4 Cell Proliferation Assay (CellTiter-Glo); format: cell-based; conditions: Homo sapiens, 72 h, read-out: MOLT-4 CTG IC50
Procedure: Cell proliferation was measured using the CellTiter-Glo® Luminescent Cell Viability Assay. The assay involved the addition of a single reagent (CellTiter-Glo® Reagent) directly to cells cultured in serum-supplemented medium. MOLT-4 cells (ATCC, CRL-1582) were cultured according to ATCC recommendations and were seeded at 50,000 cells per well.
Each compound evaluated was prepared as a DMSO stock solution (10 mM). Compounds were tested in duplicate on each plate, with a 10-point serial dilution curve (1:3 dilution). The highest compound concentration was 10 μM (final), with a 0.1% final DMSO concentration. Plates were then incubated at 37° C., 5% CO2 for 72 h, cell plates were equilibrated at rt for approximately 30 mins. An equi-volume amount of CellTiter-Glo® Reagent (100 μL) was added to each well. Plates were mixed for 2 mins on an orbital shaker to induce cell lysis and then incubated at rt for 10 mins to stabilize the luminescent signal. Luminescence was recorded using a Envision plate reader according to CellTiter-Glo protocol. IC50 of each compound was calculated using GraphPad Prism by nonlinear regression analysis.

IC50	SMILES
50 to 150 nM	CCC12CC(C3=C(CN4CCN(c5ccc(C(=O)NS(=O)(=O)c6ccc(N[C@H](CCN7CCN(CCCCCNc8cccc9c8C(=O)N(C8CCC(=O)NC8=O)C9=O)CC7)CSc7ccccc7)c(S(=O)(=O)C(F)(F)F)c6)cc5)CC4)CCC(C)(C)C3)(C1)C2 (stereo partly drawn) [Example 10, N-((4-(((2R)-4-(4-(5-((2-(2,6-dioxopiperidin-3-yl)-1,3-dioxoisoindolin-4-yl)amino)pentyl)piperazin-1-yl)-1-(phenylthio)butan-2-yl)amino)-3-((trifluoromethyl)sulfonyl)phenyl)sulfonyl)-4-(4-((2-(3-ethylbicyclo[1.1.1]pentan-1-yl)-4,4-dimethylcyclohex-1-en-1-yl)methyl)piperazin-1-yl)benzamide]
≥ 150 nM	Cc1ncsc1-c1ccc([C@H](CC(=O)NCCCCCCN2CCN(CC[C@H](CSc3ccccc3)Nc3ccc(S(=O)(=O)NC(=O)c4ccc(N5CCN(CC6=C(C78CC(C(F)F)(C7)C8)CC(C)(C)CC6)CC5)cc4)cc3S(=O)(=O)C(F)(F)F)CC2)NC(=O)[C@@H]2C[C@@H](O)CN2C(=O)[C@@H](NC(=O)C2(F)CC2)C(C)(C)C)cc1 [Example 48]
≥ 150 nM	Cc1ncsc1-c1ccc(CNC(=O)[C@@H]2C[C@@H](O)CN2C(=O)[C@@H](NC(=O)CCCCCC(=O)N2CCN(CC[C@H](CSc3ccccc3)Nc3ccc(S(=O)(=O)NC(=O)c4ccc(N5CCN(CC6=C(C78CC(C(F)F)(C7)C8)CC(C)(C)CC6)CC5)cc4)cc3S(=O)(=O)C(F)(F)F)CC2)C(C)(C)C)cc1 [Example 45, (2S,4R)-1-((S)-2-(7-(4-((R)-3-((4-(N-(4-(4-((2-(3-(difluoromethyl)bicyclo[1.1.1]pentan-1-yl)-4,4-dimethylcyclohex-1-en-1-yl)methyl)piperazin-1-yl)benzoyl)sulfamoyl)-2-((trifluoromethyl)sulfonyl)phenyl)amino)-4-(phenylthio)butyl)piperazin-1-yl)-7-oxoheptanamido)-3,3-dimethylbutanoyl)-4-hydroxy-N-(4-(4-methylthiazol-5-yl)benzyl)pyrrolidine-2-carboxamide]
≥ 150 nM	Cc1ncsc1-c1ccc([C@H](CC(=O)NCCCCCCN(C)CC[C@H](CSc2ccccc2)Nc2ccc(S(=O)(=O)NC(=O)c3ccc(N4CCN(CC5=C(C67CC(C(F)F)(C6)C7)CC(C)(C)CC5)CC4)cc3)cc2S(=O)(=O)C(F)(F)F)NC(=O)[C@@H]2C[C@@H](O)CN2C(=O)[C@@H](NC(=O)C2(F)CC2)C(C)(C)C)cc1 [Example 49, (2S,4R)—N-[(1S)-3-[6-[[(3R)-3-[4-[[4-[4-[[2-[3-(difluoromethyl)-1-bicyclo[1.1.1]pentanyl]-4,4-dimethyl-cyclohexen-1-yl]methyl]piperazin-1-yl]benzoyl]sulfamoyl]-2-(trifluoromethylsulfonyl)anilino]-4-phenylsulfanyl-butyl]-methyl-amino]hexylamino]-1-[4-(4-methylthiazol-5-yl)phenyl]-3-oxo-propyl]-1-[(2S)-2-[(1-fluorocyclopropanecarbonyl)amino]-3,3-dimethyl-butanoyl]-4-hydroxy-pyrrolidine-2-carboxamide]
50 to 150 nM	CCC12CC(C3=C(CN4CCN(c5ccc(C(=O)NS(=O)(=O)c6ccc(N[C@H](CCN7CCN(C(=O)CCCCCC(=O)N[C@H](C(=O)N8C[C@H](O)C[C@H]8C(=O)N[C@@H](C)c8ccc(-c9scnc9C)cc8)C(C)(C)C)CC7)CSc7ccccc7)c(S(=O)(=O)C(F)(F)F)c6)cc5)CC4)CCC(C)(C)C3)(C1)C2 [Example 14, (2S,4R)-1-((S)-2-(7-(4-((R)-3-((4-(N-(4-(4-((2-(3-ethylbicyclo[1.1.1]pentan-1-yl)-4,4-dimethylcyclohex-1-en-1-yl)methyl)piperazin-1-yl)benzoyl)sulfamoyl)-2-((trifluoromethyl)sulfonyl)phenyl)amino)-4-(phenylthio)butyl)piperazin-1-yl)-7-oxoheptanamido)-3,3-dimethylbutanoyl)-4-hydroxy-N—((S)-1-(4-(4-methylthiazol-5-yl)phenyl)ethyl)pyrrolidine-2-carboxamide]
≥ 150 nM	Cc1ncsc1-c1ccc([C@H](CC(=O)NCCCCCC(=O)N2CCN(CC[C@H](CSc3ccccc3)Nc3ccc(S(=O)(=O)NC(=O)c4ccc(N5CCN(CC6=C(C78CC(C(F)F)(C7)C8)CC(C)(C)CC6)CC5)cc4)cc3S(=O)(=O)C(F)(F)F)CC2)NC(=O)[C@@H]2C[C@@H](O)CN2C(=O)[C@@H](NC(=O)C2(F)CC2)C(C)(C)C)cc1 [Example 47]

Second part, the compound before the results:

SMILES	IC50
CC1(C)CCC(CN2CCN(c3ccc(C(=O)NS(=O)(=O)c4ccc(N[C@H](CCN5CCN(CCCCCOc6cccc7c6C(=O)N(C6CCC(=O)NC6=O)C7=O)CC5)CSc5ccccc5)c(S(=O)(=O)C(F)(F)F)c4)cc3)CC2)=C(C23CC(C(F)F)(C2)C3)C1 (stereo partly drawn) [Example 3, 4-(4-((2-(3-(difluoromethyl)bicyclo [1.1.1]pentan-1-yl)-4,4-dimethylcyclohex-1-en-1-yl)methyl)piperazin-1-yl)-N-((4-(((2R)-4-(4-(5-((2-(2,6-dioxopiperidin-3-yl)-1,3-dioxoisoindolin-4-yl)oxy)pentyl)piperazin-1-yl)-1-(phenylthio)butan-2-yl)amino)-3-((trifluoromethyl)sulfonyl)phenyl)sulfonyl)benzamide]	≤ 50 nM
CN(CCCCCCNc1cccc2c1C(=O)N(C1CCC(=O)NC1=O)C2=O)CC[C@H](CSc1ccccc1)Nc1ccc(S(=O)(=O)NC(=O)c2ccc(N3CCN(CC4=C(C56CC(C(F)F)(C5)C6)CC(C)(C)CC4)CC3)cc2)cc1S(=O)(=O)C(F)(F)F (stereo partly drawn) [Example 21, 4-(4-((2-(3-(difluoromethyl)bicyclo [1.1.1]pentan-1-yl)-4,4-dimethylcyclohex-1-en-1-yl)methyl)piperazin-1-yl)-N-((4-(((2R)-4-((6-((2-(2,6-dioxopiperidin-3-yl)-1,3-dioxoisoindolin-4-yl)amino)hexyl)(methyl)amino)-1-(phenylthio)butan-2-yl)amino)-3-((trifluoromethyl)sulfonyl)phenyl)sulfonyl)benzamide]	50 to 150 nM
CC1(C)CCC(CN2CCN(c3ccc(C(=O)NS(=O)(=O)c4ccc(N[C@H](CCN5CCN(CCCCCNc6ccc7c(c6)C(=O)N(C6CCC(=O)NC6=O)C7=O)CC5)CSc5ccccc5)c(S(=O)(=O)C(F)(F)F)c4)cc3)CC2)=C(C23CC(C(F)F)(C2)C3)C1 (stereo partly drawn) [Example 4, 4-(4-((2-(3-(difluoromethyl)bicyclo[1.1.1]pentan-1-yl)-4,4-dimethylcyclohex-1-en-1-yl)methyl)piperazin-1-yl)-N-((4-(((2R)-4-(4-(5-((2-(2,6-dioxopiperidin-3-yl)-1,3-dioxoisoindolin-5-yl)amino)pentyl)piperazin-1-yl)-1-(phenylthio)butan-2-yl)amino)-3-((trifluoromethyl)sulfonyl)phenyl)sulfonyl)benzamide]	50 to 150 nM
CN(CCCCCNc1cccc2c1C(=O)N(C1CCC(=O)NC1=O)C2=O)CC[C@H](CSc1ccccc1)Nc1ccc(S(=O)(=O)NC(=O)c2ccc(N3CCN(CC4=C(C56CC(C(F)F)(C5)C6)CC(C)(C)CC4)CC3)cc2)cc1S(=O)(=O)C(F)(F)F (stereo partly drawn) [Example 20, 4-(4-((2-(3-(difluoromethyl)bicycle[1.1.1]pentan-1-yl)-4,4-dimethylcyclohex-1-en-1-yl)methyl)piperazin-1-yl)-N-((4-(((2R)-4-((5-((2-(2,6-dioxopiperidin-3-yl)-1,3-dioxoisoindolin-4-yl)amino)pentyl)(methyl)amino)-1-(phenylthio)butan-2-yl)amino)-3-((trifluoromethyl)sulfonyl)phenyl)sulfonyl)benzamide]	≤ 50 nM
CN(CCCNc1cccc2c1C(=O)N(C1CCC(=O)NC1=O)C2=O)CC[C@H](CSc1ccccc1)Nc1ccc(S(=O)(=O)NC(=O)c2ccc(N3CCN(CC4=C(C56CC(C(F)F)(C5)C6)CC(C)(C)CC4)CC3)cc2)cc1S(=O)(=O)C(F)(F)F (stereo partly drawn) [Example 19, 4-(4-((2-(3-(difluoromethyl)bicyclo[1.1.1]pentan-1-yl)-4,4-dimethylcyclohex-1-en-1-yl)methyl)piperazin-1-yl)-N-((4-(((2R)-4-((3-((2-(2,6-dioxopiperidin-3-yl)-1,3-dioxoisoindolin-4-yl)amino)propyl)(methyl)amino)-1-(phenylthio)butan-2-yl)amino)-3-((trifluoromethyl)sulfonyl)phenyl)sulfonyl)benzamide]	50 to 150 nM
CC1(C)CCC(CN2CCN(c3ccc(C(=O)NS(=O)(=O)c4ccc(N[C@H](CCN5CCN(CCCCCNc6cccc7c6C(=O)N(C6CCC(=O)NC6=O)C7=O)CC5)CSc5ccccc5)c(S(=O)(=O)C(F)(F)F)c4)cc3)CC2)=C(C23CC(C(F)F)(C2)C3)C1 (stereo partly drawn) [Example 2, 4-(4-((2-(3-(difluoromethyl)bicyclo[1.1.1]pentan-1-yl)-4,4-dimethylcyclohex-1-en-1-yl)methyl)piperazin-1-yl)-N-((4-(((2R)-4-(4-(5-((2-(2,6-dioxopiperidin-3-yl)-1,3-dioxoisoindolin-4-yl)amino)pentyl)piperazin-1-yl)-1-(phenylthio)butan-2-yl)amino) ((trifluoromethyl)sulfonyl)phenyl)sulfonyl)benzamide]	≤ 50 nM
CC1(C)CCC(CN2CCN(c3ccc(C(=O)NS(=O)(=O)c4ccc(N[C@H](CCN5CCN(CCCCNc6cccc7c6C(=O)N(C6CCC(=O)NC6=O)C7=O)CC5)CSc5ccccc5)c(S(=O)(=O)C(F)(F)F)c4)cc3)CC2)=C(C23CC(C(F)F)(C2)C3)C1 (stereo partly drawn) [Example 8, 4-[4-[[2-[3-(difluoromethyl)-1-bicyclo[1.1.1]pentanyl]-4,4-dimethyl-cyclohexen-1-yl]methyl]piperazin-1-yl]-N-[4-[[(1R)-3-[4-[4-[[2-(2,6-dioxo-3-piperidyl)-1,3-dioxo-isoindolin-4-yl]amino]butyl]piperazin-1-yl]-1-(phenylsulfanylmethyl)propyl]amino]-3-(trifluoromethylsulfonyl)phenyl]sulfonyl-benzamide]	≤ 50 nM
